ChEMBL document CHEMBL1157539, “Thousands of chemical starting points for antimalarial lead identification” (Nature, 2010)

Tested on: Plasmodium falciparum
Assay: GSK_TCMDC: Inhibition of Plasmodium falciparum 3D7 in whole erythrocytes, using parasite LDH activity as an index of growth.
Format: functional, organism-based
Settings: Plasmodium falciparum, 3D7

| SMILES | XC50 [µM] |
| --- | --- |
| COc1cccc2c(N/N=C/c3ccccc3[N+](=O)[O-])ccnc12 | 0.589 |
| O=C(Cn1c(CCc2cccc(F)c2F)nc(=O)c2ccccc21)N(Cc1ccc(-c2ccc(C(F)(F)F)cc2)cc1)C1CCN(C2CCSCC2)CC1 | 0.856 |
| CC(C)(C)N1CCC(N(Cc2ccc(-c3ccc(C(F)(F)F)cc3)cc2)C(=O)Cn2c(CCc3cccc(F)c3F)cc(=O)c3ccccc32)CC1 | 0.789 |
| Cc1cc2c3c(N)nc(N)nc3ccc2n1C | 0.0901 |
| Cc1ccc(C2=NNC3(S2)C(=O)N(C)c2ccccc23)cc1 (stereo not given) | 1.02 |
| Cc1ccc2[nH]c(-c3cc(-c4ccc(CO)cc4)cnc3N)nc2c1 | 0.861 |
| C[C@H](Cc1ccc(C[C@@H](C)NC[C@H](O)c2cccc(Cl)c2)cc1)NC[C@H](O)COc1ccccc1 | 1.17 |
| CC(NCCc1cccc(Cl)c1)C(O)c1ccc(OCCCCCCOc2ccc(C(O)C(C)NCCc3cccc(Cl)c3)cc2)cc1 (stereo not given) | 0.399 |
| Cc1cc2ncc(C(N)=O)c(Nc3ccc(N4CCOCC4)cc3)c2cc1S(C)(=O)=O | 0.675 |
| Cc1c(C)c2c(c(C)c1O)CCC(C)(CCC(=O)O)O2 (stereo not given) | 0.691 |
| Nc1nc(N)c2c(ccc3c2cnn3S(=O)(=O)N2CCCC2)n1 | 0.0186 |
| COc1cccc(NC(=O)c2nc(N3CCN(c4ccncc4)CC3)ccc2Cl)c1 | 0.924 |
| COc1ccc2ncc(F)c(CCN3CCC(NCc4cc(Br)c5c(c4)OCCO5)CC3)c2n1 | 0.19 |
| CCCCCCCN1CCC(CCNc2ccnc3ccc(OC)cc23)CC1 | 0.955 |
| COc1cc(-n2cnc3cc(-c4ccc([N+](=O)[O-])cc4)sc3c2=O)ccc1OCCN1CCCC1 | 0.775 |
| COc1ccc(C=NN=c2cc(C)[nH]c3c(C)cccc23)c2ccccc12 | 0.224 |
| CC(C)NCc1ccc(-c2cccc(-c3nc4ccccc4[nH]3)c2)cc1 | 0.231 |
| C(=Cc1ccccc1)C=NN=c1cc[nH]c2ccccc12 | 0.725 |
| CC(C)C(C(=O)Nc1ccc2c(c1)OCO2)c1ccc(Cl)cc1 (stereo not given) | 0.717 |
| O=C(c1ccc(-c2ccc(-c3nc4cc(F)ccc4[nH]3)cc2)cc1)N1CCCCC1CN1CCC(O)C1 (stereo not given) | 0.368 |
| O=C(Nc1ccc(-c2ccccc2)cc1)Nc1cccc(Cn2cnc(N3CCCNCC3)cc2=O)c1 | 1.08 |
| C[C@@H]([C@@H](CCCc1ccc(Cl)cc1)C(=O)N[C@H](C(=O)Nc1cccnc1)C(C)(C)C)N(O)C=O | 0.719 |
| COc1ccc(NC(=O)N2CCCN(CCCCCNC(=O)/C=C/c3ccc(Cl)cc3)CC2)cc1Cl | 0.814 |
| O=C(NCC1CCC(C(=O)NCCN2CCCCC2)CC1)c1ccc(O)c(-c2ccc(Cl)c(Cl)c2)c1 (stereo not given) | 1.17 |

| SMILES | XC50 [µM] |
| --- | --- |
| O=C(/C=C/c1ccc(C(F)(F)F)cc1)NCCCCCN1CCCN(C(=O)Nc2ccc(Cl)c(Cl)c2)CC1 | 0.421 |
| Cc1cccc2nc(-c3ccc(-c4cccc(CNCc5cccc(N)c5)c4)cc3)[nH]c12 | 0.39 |
| O=C(CC(=O)C(F)(F)F)c1ccccc1[N+](=O)[O-] | 0.0032 |
| Cc1cccc(C)c1C1CCN(CCCCNC(=O)c2cc3ccccc3[nH]2)CC1 | 0.892 |
| CC1(CCc2ccccc2)N=C(N)N(Cc2ccccc2)C(=O)C1c1ccc(Cl)c(Cl)c1 (stereo not given) | 0.805 |
| COC(=O)/C=C/c1ccc(CC(C)NCC(O)c2cccc(C(F)(F)F)c2)cc1 (stereo not given) | 0.731 |
| COc1ccc(C=CC(=O)NC(=O)c2ccccc2OC(=O)c2ccccc2)cc1OC | 0.91 |
| CC(C)C[C@H](NC(=O)c1cc2ccccc2s1)C(=O)N[C@H]1CCN(Cc2ccc(OC[C@@H]3CCCN3C)c(Cl)c2)C1 | 0.853 |
| CCN1CCCC1CNC(=O)c1cc2c(-c3ccc(Cl)cc3)nn(C)c2s1 (stereo not given) | 0.788 |
| CN1CCN(c2cc(NC(=O)c3ccc(-c4ccc(Cl)cc4)cc3)ccc2Cl)CC1 | 0.613 |
| O=C(Nc1ccc(C(F)(F)F)cc1)c1cccc(S(=O)(=O)NC2CCN(CC3CCCCC3)CC2)c1 | 0.848 |
| O=C(/C=C/c1ccc(Cl)c(Cl)c1)NC1CCC(N2CCC(c3c[nH]c4ccccc34)CC2)CC1 (stereo not given) | 0.876 |
| COc1ccc2c(c1CNCCCCCCNCc1c(OC)ccc3c1CCCC3)CCCC2 | 0.907 |
| N=c1n(CCN2CCCC2)c2ccccc2n1CC(O)c1ccc(Cl)c(Cl)c1 (stereo not given) | 0.277 |
| Cc1nc(Nc2ccc(F)cc2)nc(N2CCc3ccccc3C2C)c1CO (stereo not given) | 0.741 |
| CNC(=O)c1cnc(Nc2ccc(N3CCN(C)CC3)cc2)nc1Nc1ccccc1OC | 0.928 |
| N#Cc1cc(C(=O)c2cc(Br)ccc2O)cn(C2CCCCC2)c1=O | 0.91 |
| COc1cccc2cc(C(=O)N[C@@H](CC(C)C)C(=O)N[C@H](/C=N/NC(=O)c3ccccc3)Cc3c[nH]cn3)oc12 | 0.13 |
| N#CN1CC[C@@H](OC(=O)N[C@@H]2C[C@H]2c2ccccc2)C1 | 1.34 |
| CN1CCc2ccc(NC(=O)Nc3cccc([N+](=O)[O-])c3)cc2C1 | 1.1 |
| c1cc(-c2ccc(CN3CCN(c4ccncc4)CC3)cc2)cc(-c2nc3ccccc3[nH]2)c1 | 0.14 |
| O=C(Nc1ccc(-c2csc(-c3nc4ccccc4[nH]3)c2)cc1)Nc1ccc(F)c(F)c1F | 0.33 |
| COc1ccc2[nH]cc(C3CCN(Cc4ccc(NC(=O)c5ccc(-c6ccccc6)cc5)cc4)CC3)c2c1 | 0.765 |
| COc1ccc(Cl)cc1N1CCN(CCCNC(=O)c2ccc(-c3nc4cc(Cl)c(C)cc4[nH]3)c(F)c2)CC1 | 0.185 |

| SMILES | XC50 [µM] |
| --- | --- |
| Cc1cc(N(C)C2CCN(C)C2)nc(Nc2ccc(Cl)cc2)n1 (stereo not given) | 0.336 |
| CCNc1cc(C(=O)N[C@@H](Cc2ccccc2)[C@H](O)CNC(C)(C)CC(C)(C)C)c(F)c(N2CCCCS2(=O)=O)c1 | 1.01 |
| COc1cc2nc(N3CCC(CNC(=O)c4ccc(-c5ccc(C(=O)N(C)C)cc5OCCN(C)C)cc4)CC3)nc(N)c2cc1OC | 0.842 |
| Nc1ccc(-c2nc3cc(C4=N[C@H]5CCCC[C@H]5N4)ccc3o2)cc1[N+](=O)[O-] | 1.12 |
| Cc1[nH]c(C)c(-c2ccc(-c3ccc(OCC(F)(F)F)cc3)nc2)c(=O)c1Cl | 0.389 |
| CN(C)Cc1ccc(-c2cccc(Nc3nccc(NCC(O)c4ccccc4)n3)c2)cc1 (stereo not given) | 0.373 |
| CN1CCN(c2cc3c(cc2Cl)CCN3C(=O)Cc2ccc(Cl)c(NC(=O)Nc3cccc(C#N)c3)c2)CC1 | 0.637 |
| COc1ccccc1C1CCN(C2CCC(NC(=O)/C=C/c3ccc(C(F)(F)F)cc3F)CC2)CC1 (stereo not given) | 0.99 |
| Cc1nc(-c2ccc(-c3ccc(C(=O)Nc4ccc(C(C)C)c(OCCN(C)C)c4)cc3)c(C)c2)no1 | 0.87 |
| O=C(NC1CCN(c2ccnc3cc(Cl)ccc23)C1)c1ccc(F)cc1F (stereo not given) | 0.372 |
| CC[C@H](C)CNC(=O)c1cncc(-c2ccc(CNC3Cc4ccccc4C3)cc2)c1 | 0.829 |
| COc1ccc(OC)c(C=NNc2nc3ccccc3[nH]2)c1 | 0.729 |
| C=Cc1sc(CNCCCNc2cc(=O)c3ccccc3[nH]2)c(C)c1Br | 1.05 |
| NC(=O)c1cccc(CNC(=O)NC[C@H]2CN(Cc3ccc(Cl)c(Cl)c3)CCO2)c1 | 0.586 |
| NCCNC(=O)c1ccc(-c2cnc3[nH]cc(-c4ccc(C(N)=O)cc4)c3c2)cc1 | 0.171 |
| O=C(NCCN1CCOCC1)c1ccc(N2CCC(Oc3ccc4ccccc4c3)CC2)nc1 | 0.763 |
| N=C(/N=C(/NCCCCCCN/C(=N\C(=N)Nc1ccc(Cl)cc1)N1CCOCC1)N1CCOCC1)Nc1ccc(Cl)cc1 | 0.713 |
| Oc1ccc(-c2cc(-c3ccc(O)cc3)nc(-c3ccccc3)n2)cc1 | 0.783 |
| Cc1ccc(Nc2nc3cc(N(C)c4ccnc(Nc5cccc(CCS(C)(=O)=O)c5)n4)ccc3n2C)cc1 | 0.339 |
| CC(=O)N/N=C/[C@H](CCc1ccccc1)NC(=O)[C@H](CC(C)C)NC(=O)c1ccc(OCCN2CCOCC2)cc1 | 0.222 |
| CCOC(=O)c1ccc(NC(=O)N(Cc2ccc(-c3ccc(CN4CCNCC4)cc3)cc2)C2CCN(Cc3ccccc3)CC2)cc1 | 0.797 |
| COc1cc(C(=O)NC2CC(C)(C)N(C)C(C)(C)C2)ccc1-c1nc2cc(Cl)c(Cl)cc2[nH]1 | 0.788 |
| OC(CNC12CC3CC(CC(C3)C1)C2)c1cccc(C(F)(F)F)c1 (stereo not given) | 0.301 |
| CN1CCN(CCCN(Cc2csc(-c3ccc(CNCc4ccccc4)cc3)n2)S(=O)(=O)c2ccc(F)cc2)CC1 | 0.858 |

| SMILES | XC50 [µM] |
| --- | --- |
| CCCCCC(=O)N1CCOC(CCN2CCC(c3ccccc3)CC2)(c2ccc(Cl)c(Cl)c2)C1 (stereo not given) | 1.12 |
| COc1ccc(CNC2CCN(C)CC2)cc1-c1ccc(S(=O)(=O)NC2CCC2)cc1 | 0.882 |
| CN1CCN(Cc2ccc(-c3ccc4c(Nc5ccc(F)cc5Cl)ccnc4c3)o2)CC1 | 0.143 |
| Cc1ccc2[nH]c(-c3ccccc3)cc(=NN=Cc3cccnc3)c2c1 | 0.691 |
| Cc1cccc2nc(-c3cccc(-c4cccc(CN5CCC(CO)CC5)c4)c3)[nH]c12 | 0.724 |
| COc1ccc2nccc(N3C[C@H]4C[C@@H]3CN4CCNCc3ccc4c(n3)NC(=O)CS4)c2n1 | 0.973 |
| NC(=O)c1cccc(C(=O)Nc2ccc(-c3cccc(-c4nc5cc(C(F)(F)F)ccc5[nH]4)c3)cc2)c1 | 0.35 |
| COc1cc2nc(N3CCN(C(=O)c4cccc(I)c4)CC3)nc(N)c2cc1OC | 1.32 |
| O=S(=O)(NC1CCN(c2ccnc3cc(Cl)ccc23)C1)c1ccc(F)cc1 (stereo not given) | 0.475 |
| CCOC(=O)c1ccc(-c2cnc(N)c(-c3nc4cccc(C)c4[nH]3)c2)cc1 | 0.281 |
| COc1cc(Cc2cnc(N)nc2N)cc(OCCCCCC(N)=O)c1OC | 1.19 |
| Oc1ccc(CCNCCCCCCNCCc2ccc(Cl)cc2)c(Cl)c1O | 0.775 |
| CN(C)CCN(C)Cc1ccc(-c2ccc3c(Nc4ccc(F)cc4Cl)ccnc3c2)o1 | 0.118 |
| COc1ccc(CCCN2C(=O)C(c3ccccc3)(c3ccccc3)N=C2N)cc1 | 1.05 |
| O=S(=O)(Nc1cccc(CCN2CCC(N3CCCCC3)CC2)c1)c1cccc2cccnc12 | 0.851 |
| CC(C)c1cccc(OCC2CCN(c3ccc(C(=O)Nc4ccccc4)cn3)CC2)c1 | 0.701 |
| COc1cc(Cc2cnc(N)nc2N)cc(OCCCCNS(=O)(=O)C(F)(F)F)c1OC | 1.04 |
| O=C(Nc1cccc(C(F)(F)F)c1)NC1CCN(c2ccnc3cc(Cl)ccc23)C1 (stereo not given) | 0.12 |
| CN(CCc1ccccn1)Cc1ccc(-c2ccc(-c3nc4ccccc4[nH]3)s2)cc1 | 0.588 |
| Cc1ccc(C(=O)Nc2cccc(-c3ccc(N4CCN(C)CC4)nn3)c2)cc1[N+](=O)[O-] | 0.334 |
| O=C(Nc1cccc(-c2ccc(-c3nc4cc(F)ccc4[nH]3)s2)c1)c1cccnc1 | 0.608 |
| CCCN1CCC(c2c[nH]c3ccc(NC(=O)Nc4cccc(Cl)c4Cl)cc23)CC1 | 0.815 |
| O=C1c2ccccc2C(=O)N1c1ccc(S(=O)(=O)N2CCOCC2)cc1 | 1.26 |
